Source: paper PMC12692795, “Design and Synthesis of Structurally Modified Analogs of 24Z-Isomasticadienonic Acid with Enhanced Anti-Proliferative Activity” (Molecules, 2025)
Where two headings read alike, the source gives them in different places.

Assays:
[1] = system: panel of human cancer cell lines (Capan-1, HCT-116, LN-229, NCI-H460, DND-41, HL-60, K-562, Z-138)
Method: (§1) Human cancer cell lines used in this study included Capan-1, HCT-116, NCI-H460, LN-229, HL-60, K-562, and Z-138, all obtained from the American Type Culture Collection (ATCC). The DND-41 cell line was sourced from the Deutsche Sammlung von Mikroorganismen und Zellkulturen (DSMZ). All cell lines were cultured in media obtained from Gibco Life Technologies, supplemented with 10% fetal bovine serum (HyClone, Logan, UT, USA). Adherent cell lines were seeded in 384-well tissue culture plates at the following densities: Capan-1 at 500 cells/well, and HCT-116, NCI-H460, and LN-229 at 1500 cells/well. After overnight incubation to allow cell attachment, cells were treated with a seven-point serial dilution of test compounds, ranging from 100 µM to 0.006 µM. Suspension cell lines were seeded as follows: HL-60, K-562, and Z-138 at 2500 cells/well, and DND-41 at 5500 cells/well, using the same compound concentration range. All treatments were performed in 384-well plates under identical conditions. Following 72 h of compound exposure, cell viability was assessed using the CellTiter 96® AQueous One Solution Cell Proliferation Assay (MTS, Promega, Leiden, The Netherlands), following the manufacturer’s protocol. The final assay mixture contained 333 µg/mL MTS and 25 µM phenazine methosulfate (PMS). Absorbance was measured at 490 nm using a SpectraMax Plus 384 microplate reader (Molecular Devices, San Jose, CA, USA). Optical density values were used to calculate the half-maximal inhibitory concentration (IC50) for each compound. All compounds were tested in a minimum of two independent biological replicates to ensure reproducibility.

[2] = system: DND-41 (acute lymphoblastic leukemia); test: Antitumoral assay (MTS, 72 h), DND-41; conditions: Homo sapiens, DND41, 72 h, read-out: Cytotoxicity IC50, DND-41
Method: (§2) Human cancer cell lines used in this study included Capan-1, HCT-116, NCI-H460, LN-229, HL-60, K-562, and Z-138, all obtained from the American Type Culture Collection (ATCC). The DND-41 cell line was sourced from the Deutsche Sammlung von Mikroorganismen und Zellkulturen (DSMZ). All cell lines were cultured in media obtained from Gibco Life Technologies, supplemented with 10% fetal bovine serum (HyClone, Logan, UT, USA). […] After overnight incubation to allow cell attachment, cells were treated with a seven-point serial dilution of test compounds, ranging from 100 µM to 0.006 µM. Suspension cell lines were seeded as follows: HL-60, K-562, and Z-138 at 2500 cells/well, and DND-41 at 5500 cells/well, using the same compound concentration range. All treatments were performed in 384-well plates under identical conditions. Following 72 h of compound exposure, cell viability was assessed using the CellTiter 96® AQueous One Solution Cell Proliferation Assay (MTS, Promega, Leiden, The Netherlands), following the manufacturer’s protocol. The final assay mixture contained 333 µg/mL MTS and 25 µM phenazine methosulfate (PMS). Absorbance was measured at 490 nm using a SpectraMax Plus 384 microplate reader (Molecular Devices, San Jose, CA, USA). Optical density values were used to calculate the half-maximal inhibitory concentration (IC50) for each compound. All compounds were tested in a minimum of two independent biological replicates to ensure reproducibility.

[3] = system: NCI-H460 (lung carcinoma); test: Antitumoral assay (MTS, 72 h), NCI-H460; conditions: Homo sapiens, NCI-H460, 72 h, read-out: Cytotoxicity IC50, NCl-H460
Method: as §1

[4] = system: K-562 (chronic myeloid leukemia); test: Antitumoral assay (MTS, 72 h), K-562; conditions: Homo sapiens, K562, 72 h, read-out: Cytotoxicity IC50, K562
Method: as §2

[5] = system: Capan-1 (pancreatic adenocarcinoma); test: Antitumoral assay (MTS, 72 h), Capan-1; conditions: Homo sapiens, CAPAN-1, 72 h, read-out: Cytotoxicity IC50, Capan-1
Method: as §1

LN-229 (glioblastoma) = test: Antitumoral assay (MTS, 72 h), LN-229; conditions: Homo sapiens, LN-229, 72 h, read-out: Cytotoxicity IC50, LN229
Method: as §1

[6] = system: HCT-116 (colorectal carcinoma); test: Antitumoral assay (MTS, 72 h), HCT-116; conditions: Homo sapiens, HCT-116, 72 h, read-out: Cytotoxicity IC50, HCT-116
Method: as §1

[7] = system: HL-60 (acute myeloid leukemia); test: Antitumoral assay (MTS, 72 h), HL-60; conditions: Homo sapiens, HL-60, 72 h, read-out: Cytotoxicity IC50, HL-60
Method: as §2

[8] = system: Z-138 (non-Hodgkin's lymphoma); test: Antitumoral assay (MTS, 72 h), Z-138; conditions: Homo sapiens, Z-138, 72 h, read-out: Cytotoxicity IC50, Z138
Method: as §2

[9] = system: panel of human cancer cell lines (Capan-1, HCT-116, LN-229, NCI-H460, DND-41, HL-60, K-562, Z-138); test: Antitumoral evaluation across the panel of solid and hematological cancer cell lines; conditions: 8 cancer cell lines, 72 h, MTS
Method: as §1

[10] = system: peripheral blood mononuclear cells (PBMCs); test: Cell viability of PBMCs (MTS, 72 h); format: cell-based, Human; conditions: 72 h exposure, duplicate
Method: A buffy coat preparation sourced from a healthy donor was acquired from the Blood Transfusion Center in Leuven, Belgium. Peripheral blood mononuclear cells (PBMCs) were separated using density gradient centrifugation over Lymphoprep (density: 1.077 g/mL) from Nycomed. These cells were then cultured in cell culture medium (RPMI, Gibco, Waltham, MA, USA) supplemented with 10% FBS. The PBMCs were seeded at a density of 28,000 cells per well in 384-well tissue culture plates containing the test compounds at concentrations ranging from 50 µM to 3.2 nM (for compounds 3–11 and IMNA) and from 10 µM to 0.6 nM (for etoposide). Following a 72 h incubation period, cell viability was assessed using the MTS cell viability assay. Each compound was evaluated in duplicate.

SMILES | Cytotoxic / antiproliferative profile across the cancer cell line panel (in words) [1] | IC50 [2] [µM] | IC50 [3] [µM] | IC50 [4] [µM] | IC50 [5] [µM] | IC50 (LN-229 (glioblastoma)) [µM] | IC50 [6] [µM] | IC50 [7] [µM] | IC50 [8] [µM] | Cytotoxic / antiproliferative profile across the cancer cell line panel (in words) [9] | Toxicity to normal PBMCs ([10]; 10 µM) | Effect on viability of normal PBMCs ([10]; 50 µM)
C/C(=C/CC[C@H](C)[C@@H]1CC[C@]2(C)C3=C(CC[C@@]12C)[C@@]1(C)CC(Br)C(=O)C(C)(C)C1CC3)C(=O)O (mixture of isomers) [Compound 4, 2-Bromo-3-oxotirucalla-8,24Z-dien-26-oic Acid] | intermediate activity across multiple cell lines | 20.5 ± 3.9 | 25.1 ± 1.9 | > 50 | 9.4 ± 1.5 | 28.5 ± 5.3 | 22 ± 0.8 | 14.7 ± 3.3 | > 50 |  |  | 
C/C(=C/CC[C@H](C)[C@@H]1CC[C@]2(C)C3=C(CC[C@@]12C)[C@@]1(C)CC(SC#N)C(=O)C(C)(C)C1CC3)C(=O)O (mixture of isomers) [Compound 6, 2-Thiocyanate-3-oxotirucalla-8,24Z-dien-26-oic Acid] | broader antiproliferative activity | 18.5 ± 0.7 | 21.3 ± 2.3 | 35 ± 3.9 | 7.4 ± 1 | 23.3 ± 2.9 | 24.3 ± 1.4 | 15 ± 1.2 | 17.9 ± 0.4 |  |  | 
C/C(=C/CC[C@H](C)[C@@H]1CC[C@]2(C)C3=C(CC[C@@]12C)[C@@]1(C)Cc2cnoc2C(C)(C)[C@@H]1CC3)C(=O)O [Compound 3, (S,Z)-2-Methyl-6-((1S,3aS,5aR,10aS,12aS)-3a,6,6,10a,12a-pentamethyl-2,3,3a,4,5,5a,6,10,10a,11,12,12a-dodecahydro-1H-cyclopenta[7,8]phenanthro[3,2-d]isoxazol-1-yl)hept-2-enoic Acid] | selective cytotoxicity toward Capan-1 | > 50 | > 50 | > 50 | 6.7 ± 0.4 | > 50 | > 50 | > 50 | > 50 |  |  | 
C/C(=C/CC[C@H](C)[C@@H]1CC[C@]2(C)C3=C(CC[C@@]12C)[C@@]1(C)Cc2sc(N)nc2C(C)(C)[C@@H]1CC3)C(=O)O [Compound 5, (S,Z)-6-((1S,3aS,5aR,10aS,12aS)-8-Amino-3a,6,6,10a,12a-pentamethyl-2,3,3a,4,5,5a,6,10,10a,11,12,12a-dodecahydro-1H-cyclopenta[7,8]phenanthro[2,3-d]thiazol-1-yl)-2-methylhept-2-enoic Acid] | intermediate activity across multiple cell lines | 19 ± 2 | 24.5 ± 7.2 | > 50 | 23.5 ± 2.4 | 27.9 ± 2.9 | 28.2 ± 1.9 | 19.5 ± 3.2 | 25 ± 1.4 |  |  | 
C/C(=C/CC[C@H](C)[C@@H]1CC[C@]2(C)C3=C(CC[C@@]12C)[C@@]1(C)Cc2sc(N4CCOCC4)nc2C(C)(C)[C@@H]1CC3)C(=O)O [Compound 7, (S,Z)-2-Methyl-6-((1S,3aS,5aR,10aS,12aS)-3a,6,6,10a,12a-pentamethyl-8-morpholino-2,3,3a,4,5,5a,6,10,10a,11,12,12a-dodecahydro-1H-cyclopenta[7,8]phenanthro[2,3-d]thiazol-1-yl)hept-2-enoic Acid] | selective cytotoxicity toward Capan-1 | > 50 | > 50 | > 50 | 26 ± 0.4 | > 50 | > 50 | > 50 | > 50 |  |  | 
C/C(=C/CC[C@H](C)[C@@H]1CC[C@]2(C)C3=C(CC[C@@]12C)[C@]1(C)C(CC3)C(C)(C)C(=O)O[C@@H]1O)C(=O)O (stereo partly drawn) [Compound 9, 1α-hydroxy-3-oxa-nor-tirucalla-8,24Z-dien-26-oic acid] |  | > 50 | > 50 | > 50 | 39.4 ± 1.5 | > 50 | > 50 | > 50 | > 50 | selective cytotoxicity toward Capan-1 |  | 
C/C(=C/CC[C@H](C)[C@@H]1CC[C@]2(C)C3=C(CC[C@@]12C)[C@@]1(C)CC(=O)C(C)(C)C1CC3)C(=O)O (some centres unmarked) [Compound 11, 3-One-1(2→3)-abeotirucalla-8,24Z-dien-26-oic Acid] |  | 49.3 ± 0.8 | > 50 | > 50 | 24.6 ± 2.1 | > 50 | > 50 | 29.6 ± 8.9 | > 50 | more limited and restricted cytotoxic profile |  | 
COc1cc([C@@H]2c3cc4c(cc3[C@@H](O[C@@H]3O[C@@H]5CO[C@@H](C)O[C@H]5[C@H](O)[C@H]3O)[C@H]3COC(=O)[C@H]23)OCO4)cc(OC)c1O [Etoposide, reference compound] |  | 0.08 ± 0.03 | 2.36 ± 0.7 | 4.47 ± 0.11 | 0.24 ± 0.01 | 4.8 ± 0.87 | 1.09 ± 0.19 | 0.3 ± 0.12 | 0.08 ± 0.007 | potent antiproliferative activity against all cancer cell lines | did not display toxicity | 
C/C(=C/CC[C@H](C)[C@@H]1CC[C@]2(C)C3=C(CC[C@@]12C)[C@@]1(C)CCC(=O)C(C)(C)C1CC3)C(=O)O (some centres unmarked) [IMNA, 24Z-isomasticadienonic acid] |  | 34.2 ± 2.5 | > 50 | > 50 | 26.5 ± 1.6 | > 50 | 42.3 ± 2.3 | 21.7 ± 3.1 | 32.7 ± 3.2 | intermediate activity across multiple cell lines |  | none of the analogues (compounds 3–11 and IMNA) decreased the viability
